According to patent publication US5164405A, “Nicardipine pharmaceutical composition for parenteral administration” (Syntex (U.S.A.) Inc., priority 1990, dated 1992):

Key:
physchem = format: physicochemical; conditions: for solubility thermodynamic: Equilibrium solubility
Excerpt: The solubilities were equilibrium solubilities measured by a saturated solution method well known to those skilled in the art.

[1] = Dissolution, free base precipitation and tonicity on preparation of formulations; format: physicochemical; conditions: for Dissolution: added to citrate buffer solution; for Dissolution / Dissolution in water for injection / free base precipitation: monohydrochloride; for Dissolution in water for injection / free base precipitation: unbuffered water for injection, before pH adjustment
Experimental: With regard to the process for producing the stable pharmaceutical composition according to the inventions, preferably the citric acid and sodium hydroxide is first dissolved in some water for injection to form a solution of the desired pH. The nicardipine HCI and sorbitol are then added and dissolved in this solution of controlled pH and the resulting solution made to volume with the remainder of the water for injection.
A. In an initial attempt to formulate a pharmaceutical composition of nicardipine hydrochloride suitable for parenteral administration employing conventional techniques well known in the pertinent art, 1 mg of nicardipine hydrochloride was dissolved in water for injection. To this was admixed 6 mg of sodium chloride and a sufficient amount of hydrochloric acid to give a solution having a pH of 3 5. This solution was then made up to volume with water for injection, i.e., to 1 ml. The resulting composition was packaged in an ampule and sterilized by autoclaving.
B. Then, in a following attempt to formulate a pharmaceutical composition of nicardipine hydrochloride for parenteral administration employing conventional techniques well known in the pertinent art, 1 mg of nicardipine hydrochloride together with about 50 mg of the non-chloride, saccharide compound, sorbitol, were dissolved in a portion of water for injection. Sufficient amounts of concentrated hydrochloric acid was added to produce a solution of pH 3.5 and the composition was made to volume with the remainder of the water for injection, i.e. to 1 ml. The resulting composition was packaged in an ampule and sterilized by autoclaving.
The solution was made up to volume, i.e 1 ml. with the remainder of the water for injection. This solution was then filled into ampules and terminally sterilized by autoclaving.

COC(=O)C1=C(C)NC(C)=C(C(=O)OCCN(C)Cc2ccccc2)C1c1cccc([N+](=O)[O-])c1.Cl (stereo not shown) [Nicardipine Hydrochloride, 2-(Benzylmethylamino)ethyl methyl 1,4-dihydro-2,6-dimethyl-4-(m-nitrophenyl)-3,5-pyridine-dicarboxylate monohydrochloride]
Aqueous solubility as a function of pH (physchem): reduction in the aqueous solubility
solubility thermodynamic (physchem; water, pH 3.05, water): 2940 µg/mL
solubility thermodynamic (physchem; water, pH 3.45, water): 3280 µg/mL
Equilibrium solubility (physchem; water, pH 4.06): 5160 µg/mL
solubility thermodynamic (physchem; water, pH 4.06, water): 2950 µg/mL
solubility thermodynamic (physchem; water, pH 4.24, water): 2350 µg/mL
solubility thermodynamic (physchem; water, pH 4.68, water): 850 µg/mL
solubility thermodynamic (physchem; water, pH 5.05, water): 360 µg/mL
solubility thermodynamic (physchem; water, pH 6.21, water): 25 µg/mL
Dissolution ([1]; listed as Nicardipine HCl): very easy
Dissolution [1]: rapid and complete dissolution
Precipitation of free base ([1]; dissolved in buffer solution): No precipitation of free base was observed
Temperature that can be required for dissolution ([1]; dissolved in water, before buffer addition or unbuffered): 60-70 °C
Dissolution of required dose strength (1 mg per ml) ([1]; sodium chloride increased to give an isotonic solution): failure to dissolve sufficient nicardipine hydrochloride
Dissolution in water for injection / free base precipitation ([1]; listed as Nicardipine HCl): difficult
Dissolution in water for injection / free base precipitation [1]: formation of nicardipine free base which precipitates from solution
